For data set [1] the following is noted: cited from earlier work.
A short description of data set [2]: Zone Approach: nutrient zone (Zone 1-5), target nutrient zone and follow-up zone. It counts as in vivo, human. Conditions: Zone Approach, CB followed for three months; for change of nutrient level at follow-up testing / nutrient zone at follow-up testing: Example 5: person. From the text: The second exemplary approach includes determining nutrient zones, and thus is referred to as the “Zone Approach.” According to some embodiments, the nutrient reference range for individuals can be divided into a number of zones, each indicating a nutrient wellness level. […] In some embodiments, for a given nutrient, each zone is associated with a specific multiplication factor, which can be used to determine the appropriate dosage for the CB. A few exemplary methods following this Zone Approach are further described hereinafter. […] Based on the assessment results, the current zone for each nutrient is determined at step 420a. In some embodiments, the genetic predispositions and cellular levels may influence the determination of the overall zone for a nutrient. […] This adjustment accounts for the impact of genetic polymorphisms and suboptimal cellular levels, each reducing the nutrient's zone by one or more zones. Therefore, this approach takes one or more of cellular and serum nutrient levels, along with their nutrient genetic profile into consideration to determine a given nutrient's overall zone. In the next, the Target Nutrient Zone (TNZ) to which the individual's each nutrient level is to be optimized is determined at step 430. […] In some embodiments, the determined TNZ is used to determine the multiplication factor used to adjust the starting dosage at step 440a, resulting in the CB dosage for each nutrient. In various embodiments, the multiplication factor is a fixed constant value, previously determined for a nutrient when moving from a first zone to a second zone. […] At step 450a, the CB with the determined nutrient dosages is administered to the individual for a predefined period. In some embodiments, a follow-up test is periodically conducted at step 460, to monitor the progress towards the target nutrient levels during the predefined period, for example, to check whether a target zone is reached or not for a given nutrient. In some embodiments, based on the results from the follow-up tests, it is further determined whether the dosage of the CB for a nutrient requires adjustment. If the adjustment is necessary, appropriate modification is made to the CB, for example, by increasing the TNZ to increase the nutrient levels. The modified CB is administered to the individual, and a reassessment is conducted again. In some embodiments, the personalized dosage of the nutritional supplement in the CB is modified as above after the at least one, two, three, four, five, six, seven, eight, nine, ten, or more repeats.

The nature of data set [3]: Vibrant Absorption Factor (VAF): difference of post- and pre-supplementation nutrient values divided by ATB dosage. Conditions: person one; serum.
Excerpt: (§1) Improvement in nutrition can be determined by comparing the nutrient values in serum, RBC, and WBCs post-nutritional supplementation to the nutrient values in serum, RBC, and WBCs pre-nutritional supplementation. Based on the improvement, the change in the nutrient levels can be attributed to the per milligram dosage of the supplemented nutrients. The assessed nutritional change is the “Vibrant Absorption factor (VAF (see Equation (1) below). The VAF can be used to determine the subject's utilization of the supplemented nutrients, as determined by the difference in extracellular and intracellular nutrient values before and after supplementation. Based on the subject's utility or absorption of the nutrients, the dosage amount of the nutrient needed to be supplemented or increased to effect change of the subject's nutrient values into the optimum nutrient zone can be assessed. In various embodiments, the VAF is determined by administering a pre-determined formulation, referred to herein as the Absorption Testing Blend.
(§2) Next, the ATB is administered to the individual for a predefined period at step 320a, after which nutrient levels and the genetic nutrient profile are re-evaluated, to obtain the post-supplementation biomarker values at step 330.
(§3) This includes determining the VAF based on the difference between post- and pre-supplementation biomarker values, which is divided by the ATB dosage.
(§4) The assessed change is called the VAF. The VAF is used to understand how the individual's body is utilizing these nutrients, depending on the difference in extracellular and intracellular nutrient values before and after supplementation. Based on the body's utility or absorption of the nutrients, the amount of nutrients needed to be supplemented to alter the individual's nutrient values into the optimum nutrient zone is understood. The VAF calculations help in determining the appropriate dosages of nutrients required in the ‘customized blend.’
Data set [4] can be described thus: NutriPro test: serum, RBC and WBC nutrient values before and after ATB / customized blend. It counts as in vivo, human. From the text:
The method for providing a nutritional supplement for a subject as disclosed herein is based on a comprehensive panel that assesses intracellular and extracellular levels of at least or up to 41 nutrients. […] Blood analysis using the method disclosed herein tests for nutrient levels in serum, red blood cells (RBCs), and white blood cells (WBCs). Additional genetic testing can assess patients' predispositions toward nutrient deficiencies. Based on the blood and genetic analysis results, a subsequent supplementation diet comprising supplements and food sources can be designed and implemented. The subject can be a human subject.
In some embodiments, the detection method is mass spectrometry.
The ‘NutriPro’ test is used to assess serum (extracellular), RBC, and WBC (intracellular) nutrient values along with genetic testing for any predispositions with could be affecting nutrient values in the body. If required, additional tests such as the gut zoomer, cardiovascular health, thyroid test, kidney function test, liver function test, etc, are carried out. FIG. 1 provides a schematic diagram of the process of the NutriPro test from the individual subject to the creation of customized nutritional blends.
The ATB is given to the individual for nutritional supplementation, and blood testing for nutrients in serum, RBC, and WBC is carried out after 3 or 6 months.
The assessed change is called the VAF.
After testing, the individual takes the ATB or the customized blend for the amount of time indicated.

Data set [5] is described as follows: clinical. Conditions: female, human, in vivo.
Excerpt: (§5) In some embodiments, the detection method assesses nutrients both in extracellular plasma and intracellular in RBC and WBC. In some embodiments, the detection method is mass spectroscopy-based. The extracellular and intracellular nutrient levels provide a comprehensive analysis of a subject's nutrient status, reflecting not only the intake levels but also the absorption levels into the cells.
(§6) In some aspects, the extracellular nutrient levels provide a snapshot of the status of nutrient baseline levels at a given time. It is a reflection of a person's diet over a narrow period of time. In contrast, the intracellular levels of nutrients provide information on the absorbed levels of nutrients, thus accounting for factors such as aging, lifestyle, chronic illness, medication, etc. that could interfere with absorption and can change the functional nutritional levels.
(§7) In some embodiments, the detection method is mass spectrometry. In some embodiments, the detection method is Liquid chromatography-mass spectrometry (LC-MS), Gas chromatography-mass spectrometry (GC-MS), or Inductively coupled plasma-mass-spectrometry (ICP-MS). In some embodiments, the detection method is Liquid chromatography-mass spectrometry (LC-MS). In some embodiments, the detection method is Gas chromatography-mass spectrometry (GC-MS). In some embodiments, the detection method is Inductively coupled plasma-mass-spectrometry (ICP-MS).
(§8) In some embodiments, the method provided herein evaluates nutrient levels, both in extracellular serum and inside (intracellular) red blood cells (RBC) and/or white blood cells (WBC). The extracellular nutrient levels provide a snapshot of the status of nutrient baseline levels at a given time. These extracellular nutrient levels are a reflection of a person's diet over a narrow period of time. In contrast, RBCs have a normal lifespan of 120 days, and thus intracellular assessments for nutrients in RBCs can provide information on nutrients over longer periods. Additionally, the intracellular levels of nutrients provide information on the absorbed levels of nutrients, thus accounting for factors such as, but not limited to, aging, lifestyle, chronic illness, and medication, that can interfere with absorption and can change the functional nutritional levels. Moreover, actual nutrient utilization occurs inside the cell owing to cellular metabolic processes. At times, nutrients could be present in serum, but poor cellular uptake may result in cells being devoid of these nutrients, thus giving rise to nutrient deficiencies owing to affected cellular activities. […] As a result, it is important to assess nutrients intracellularly in addition to extracellularly. Thus, the intracellular assessment provides information on cellular uptake and utilization of nutrients at the most fundamental level, enabling understanding of the root cause of nutrient deficiencies.
(§9) The subject individual fills out the health questionnaire (PHQ) which helps establishes factors such as symptoms, complications, comorbidities, and ongoing medications. The subject's blood is drawn and the extracellular serum and intracellular blood cells are tested for nutritional deficiencies via mass spectroscopy (e.g., Liquid chromatography-mass spectrometry (LC-MS), Gas chromatography-mass spectrometry (GC-MS), or Inductively coupled plasma-mass-spectrometry (ICP-MS)).
The nature of data set [6]: Extracellular (serum) nutrient levels by mass spectrometry (LC-MS, GC-MS, ICP-MS). Conditions: Level: Serum; person; before customized blend.
Excerpt: as §5, §6, §7, §8, §9
The conditions of data set [7]: human, in vivo.
Excerpt: as §1, §2, §3, §4
For data set [8] the following is noted: in vivo.
Excerpt: as §5, §6, §7, §8, §9

Read-outs that look alike come from different tables or passages of the source.

These results are taken from patent US20260169011A1, “METHODS AND COMPOSITIONS FOR PROVIDING CUSTOMIZED NUTRITIONAL SUPPLEMENTS” (Vibrant Holdings LLC, priority 2023, published 2026).

Consider `NC(=O)CC[C@H](N)C(=O)O` [L-glutamine, L-Glutamine], for which the UTL in data set [1] (Table 18, person one) is given as 14000 mg/day; in data set [1] (Table 20, person three) it was 14000 mg/day; in data set [1] (upper tolerable limit) it was 14000 mg/day. The “change of nutrient level at follow-up testing” value in data set [2] is “marginal increase”. In data set [2], the “nutrient zone at follow-up testing” value is recorded as “Zone 2”. Also, in data set [3], the VAF is 3.34. In data set [4] (male, human, in vivo), the “Follow-up Biomarker level” value is 697 nmol/mL. In data set [4] (male, human, in vivo), the Post-test biomarker level amounted to 312 nmol/mL. In addition, in data set [4] (person one, serum, before ATB), the Pre-test biomarker level is listed as 295.3 nmol/mL. Further, the “Follow-up Nutrient Level” value in data set [4] (person three, serum, after customized blend) came out at 677 nmol/mL. Also, the “Actual Nutrient Value (ANV)” value in data set [4] (person three, serum, before customized blend) was determined as 290 nmol/mL; in data set [6], 302 nmol/mL. This compound returned a concentration at 3 months in data set [5] of 371 µM.

As to `CCCCC/C=C\C/C=C\CCCCCCCC(=O)O` [LA, linoleic acid], in data set [2] (Example 4: person three bodybuilder, named nutrients are the exceptions that did not reach the TNZ), the “nutrient levels reaching their TNZ at follow-up testing” value is on record as “supposed to reach the higher Zone 5”.

Take `[Se]` [Selenium]: in data set [4] (female, human, in vivo), the “Follow-up Biomarker level” value came to 267 ng/mL, the Post-test biomarker level is 122 ng/mL and the Pre-test biomarker level is 105 ng/mL. In data set [4] (male, human, in vivo), the “Actual Nutrient Value (ANV)” value was determined as 190 ng/mL, the “Follow-up Biomarker level” value was found to be 259 ng/mL, the “Follow-up Nutrient Level” value was found to be 267 ng/mL and the Post-test biomarker level amounted to 167 ng/mL. In addition, in data set [4] (male, human, in vivo), the Pre-test biomarker level was found to be 140 ng/mL. This compound also yielded a VAF in data set [7] (female) of 2.267. Moreover, the VAF in data set [7] (male) is 3.6.

As for `Cc1ncc(COP(=O)(O)O)c(C=O)c1O` [vitamin B6, Pyridoxal 5-Phosphate], in data set [2], the “change of nutrient level at follow-up testing” value is “moderately increased” and the “nutrient zone at follow-up testing” value is on record as “Zone 2”. Also, in data set [8], the “Actual Nutrient Value (ANV)” value was determined as 0.5 ng/mL and the “Follow-up Nutrient Level” value is 0.9 ng/mL. Besides, in data set [4] (in vivo), the “Actual Nutrient Value (ANV)” value was determined as 130 ng/mL and the “Follow-up Nutrient Level” value was 401 ng/mL.
